Results as given in patent US20080109040A1, “METHOD OF TREATING ARRHYTHMIAS” (priority 2002, published 2008).

What was measured:
[1] = test system: arterially perfused canine left ventricular wedge preparation; assay: Action potential and ECG studies in arterially-perfused canine left ventricular wedge preparations; set-up: APD90 ± SE, M region / TDR / APD50 ± SE, M region / QTend: unit not given beside the values; conditions: for APD50 ± SE, Epicardium / APD50 ± SE, M region / APD90 ± SE, Epicardium / APD90 ± SE, M region / QTend / TDR / Tpeak-Tend: BCL = 2000; for Ranolazine-induced Torsade de Pointes, Spontaneous / Ranolazine-induced Torsade de Pointes, Stimulation-induced: ranolazine 1-100 μM
Description: Transmural left ventricular wedges with dimensions of approximately 12 mm×35 mm×12 mm were dissected from the mid-to-basal anterior region of the left ventricular wall and a diagonal branch of the left anterior descending coronary artery was cannulated to deliver the perfusate (Tyrode's solution). The composition of the Tyrode's solution was (in mM): […] A separate set of experiments were performed using Tyrode's solution containing 2 mM KCl. Transmembrane action potentials were recorded from epicardial (EPI) and Subendocardial regions (M) using floating microelectrodes. A transmural pseudo-electrocardiogram (ECG) was recorded using two K-Agar electrodes (1.1 mm, i.d.) placed at approx. 1 cm. from the epicardial (+) and endocardial (−) surfaces of the preparation and along the same axis as the transmembrane recordings. […] A constant flow rate was set before ischemia to reach a perfusion pressure of 40-50 mmHg. The temperature was maintained at 37±0.5° C. by heating the perfusate and a contiguous water-chamber that surrounded the tissue-chamber with the same heater/circulating bath. The top-uncovered part of the tissue-chamber was covered in each experiment to 75% of its surface with plastic sheets to further prevent heat loss; the remainder 25% was kept uncovered to position and maneuver the ECG electrodes and the floating microelectrodes. The preparations were fully immersed in the extracellular solution throughout the course of the experiment. The QT interval was defined as the time interval between the initial deflection of the QRS complex and the point at which a tangent drawn to the steepest portion of the terminal part of the T wave crossed the isoelectric line. Experimental Series 1: […] [K^+]o=4 mM. a. Steady-state stimulation: […] b. Programmed electrical stimulation (PES): Premature stimulation was applied to the epicardial surface before and after each concentration of drug in an attempt to induce arrhythmias. Single pulses (S2) were delivered once after every fifth or tenth basic beat (S1) at cycle lengths of 2000 msec. […] Experimental Series 2: […] [K^+]o=2 mM.

[2] = target: T1, sodium-calcium exchange current (INa-Ca) (Canis lupus familiaris, UniProt P23685); assay: Sodium-calcium exchange current voltage clamp in isolated canine left ventricular myocytes; type: cell-based; conditions: read-out: IC50 for inhibition of INa-Ca
T1 construct: Single myocytes were obtained by enzymatic dissociation from a wedge-shaped section of the ventricular free wall; endogenous in cells; host or cells: isolated canine left ventricular myocytes

[3] = test system: guinea pig isolated heart; assay: K-H buffer perfused guinea pig isolated heart: MAP duration, EADs and VT; conditions: for Effect on ATXII-induced EADs and MAP prolongation: ranolazine 10 μM; for Decrease of MAPS90: ranolazine 10 μmol/L; for Effect on ATXII-induced EADs and VT: ranolazine 5, 10 and 30 μM in the presence of ATXII
Description: To study the effect of ranolazine on ATXII induced MAP (monophasic action potential) duration prolongation, EADs and ventricular tachyarrhythmia (VT), the K—H buffer perfused guinea pig isolated heart model was used.
Multiple EADs and sustained depolarizations were frequently observed.

COc1ccccc1OCC(O)CN1CCN(CC(=O)Nc2c(C)cccc2C)CC1 (racemic) [ranolazine, N-(2,6-dimethylphenyl)-4-[2-hydroxy-3-(2-methoxyphenoxy)propyl]-1-piperazineacetamide]
APD50 ± SE, Epicardium ([1]; 1 μM, 2 mM [KCl]0): 173 ± 2 | APD50 ± SE, M region ([1]; 1 μM, 2 mM [KCl]0): 210.7 ± 13.53 | APD90 ± SE, Epicardium ([1]; 1 μM, 2 mM [KCl]0): 232 ± 5.508 | APD90 ± SE, M region ([1]; 1 μM, 2 mM [KCl]0): 280.3 ± 12.72 | QTend ([1]; 1 μM, 2 mM [KCl]0): 311 ± 9.5 | TDR ([1]; 1 μM, 2 mM [KCl]0): 28.33 ± 11.46 | Tpeak-Tend ([1]; 1 μM, 2 mM [KCl]0): 35 ± 4.70 | APD50 ± SE, Epicardium ([1]; 1 μM, 4 mM [KCl]0): 176.3 ± 12.25 | APD50 ± SE, M region ([1]; 1 μM, 4 mM [KCl]0): 203.3 ± 9.621 | APD90 ± SE, Epicardium ([1]; 1 μM, 4 mM [KCl]0): 213.8 ± 13.28 | APD90 ± SE, M region ([1]; 1 μM, 4 mM [KCl]0): 254.3 ± 9.15 | QTend ([1]; 1 μM, 4 mM [KCl]0): 263.5 ± 10.56 | TDR ([1]; 1 μM, 4 mM [KCl]0): 26.75 ± 8.045 | Tpeak-Tend ([1]; 1 μM, 4 mM [KCl]0): 34.5 ± 3.202 | APD50 ± SE, Epicardium ([1]; 5 μM, 2 mM [KCl]0): 183.5 ± 1.5 | APD50 ± SE, M region ([1]; 5 μM, 2 mM [KCl]0): 205.7 ± 7.881 | APD90 ± SE, Epicardium ([1]; 5 μM, 2 mM [KCl]0): 252.5 ± 10.5 | APD90 ± SE, M region ([1]; 5 μM, 2 mM [KCl]0): 289.7 ± 2.848 | QTend ([1]; 5 μM, 2 mM [KCl]0): 319 ± 4.58 | TDR ([1]; 5 μM, 2 mM [KCl]0): 15 ± 7 | Tpeak-Tend ([1]; 5 μM, 2 mM [KCl]0): 33 ± 1.33 | APD50 ± SE, Epicardium ([1]; 5 μM, 4 mM [KCl]0): 176.5 ± 11.85 | APD50 ± SE, M region ([1]; 5 μM, 4 mM [KCl]0): 207.5 ± 8.627 | APD90 ± SE, Epicardium ([1]; 5 μM, 4 mM [KCl]0): 219 ± 12.12 | APD90 ± SE, M region ([1]; 5 μM, 4 mM [KCl]0): 258.3 ± 11.08 | QTend ([1]; 5 μM, 4 mM [KCl]0): 274.5 ± 13.73 | TDR ([1]; 5 μM, 4 mM [KCl]0): 36 ± 2.449 | Tpeak-Tend ([1]; 5 μM, 4 mM [KCl]0): 37.75 ± 4.09 | APD50 ± SE, Epicardium ([1]; 10 μM, 2 mM [KCl]0): 190 ± 2 | APD50 ± SE, M region ([1]; 10 μM, 2 mM [KCl]0): 208.3 ± 3.48 | APD90 ± SE, Epicardium ([1]; 10 μM, 2 mM [KCl]0): 265.5 ± 16.5 | APD90 ± SE, M region ([1]; 10 μM, 2 mM [KCl]0): 305.3 ± 4.978 | QTend ([1]; 10 μM, 2 mM [KCl]0): 329 ± 2.33 | TDR ([1]; 10 μM, 2 mM [KCl]0): 23.5 ± 1.5 | Tpeak-Tend ([1]; 10 μM, 2 mM [KCl]0): 36 ± 4.09 | APD50 ± SE, Epicardium ([1]; 10 μM, 4 mM [KCl]0): 170.5 ± 12.03 | APD50 ± SE, M region ([1]; 10 μM, 4 mM [KCl]0): 199 ± 9.083 | APD90 ± SE, Epicardium ([1]; 10 μM, 4 mM [KCl]0): 216.5 ± 13.41 | APD90 ± SE, M region ([1]; 10 μM, 4 mM [KCl]0): 260.3 ± 12.66 | QTend ([1]; 10 μM, 4 mM [KCl]0): 277.8 ± 14.99 | TDR ([1]; 10 μM, 4 mM [KCl]0): 30.75 ± 10.46 | Tpeak-Tend ([1]; 10 μM, 4 mM [KCl]0): 39.25 ± 5.54 | APD50 ± SE, Epicardium ([1]; 50 μM, 2 mM [KCl]0): 179 ± 1 | APD50 ± SE, M region ([1]; 50 μM, 2 mM [KCl]0): 214.3 ± 6.333 | APD90 ± SE, Epicardium ([1]; 50 μM, 2 mM [KCl]0): 276.5 ± 18.5 | APD90 ± SE, M region ([1]; 50 μM, 2 mM [KCl]0): 325.5 ± 5.5 | QTend ([1]; 50 μM, 2 mM [KCl]0): 343 ± 2.84 | TDR ([1]; 50 μM, 2 mM [KCl]0): 35.5 ± 3.5 | Tpeak-Tend ([1]; 50 μM, 2 mM [KCl]0): 41 ± 6.35 | APD50 ± SE, Epicardium ([1]; 50 μM, 4 mM [KCl]0): 159.5 ± 12.82 | APD50 ± SE, M region ([1]; 50 μM, 4 mM [KCl]0): 187.8 ± 11.21 | APD90 ± SE, Epicardium ([1]; 50 μM, 4 mM [KCl]0): 218 ± 15.91 | APD90 ± SE, M region ([1]; 50 μM, 4 mM [KCl]0): 257.5 ± 15.47 | QTend ([1]; 50 μM, 4 mM [KCl]0): 279.3 ± 17.21 | TDR ([1]; 50 μM, 4 mM [KCl]0): 32.5 ± 6.278 | Tpeak-Tend ([1]; 50 μM, 4 mM [KCl]0): 41.25 ± 8.37 | APD50 ± SE, Epicardium ([1]; 100 μM, 2 mM [KCl]0): 167.5 ± 0.5 | APD50 ± SE, M region ([1]; 100 μM, 2 mM [KCl]0): 187.7 ± 4.978 | APD90 ± SE, Epicardium ([1]; 100 μM, 2 mM [KCl]0): 293.5 ± 21.5 | APD90 ± SE, M region ([1]; 100 μM, 2 mM [KCl]0): 345 ± 14.36 | QTend ([1]; 100 μM, 2 mM [KCl]0): 376 ± 4.48 | TDR ([1]; 100 μM, 2 mM [KCl]0): 35 ± 11 | Tpeak-Tend ([1]; 100 μM, 2 mM [KCl]0): 55 ± 1.00 | APD50 ± SE, Epicardium ([1]; 100 μM, 4 mM [KCl]0): 152.5 ± 14.44 | APD50 ± SE, M region ([1]; 100 μM, 4 mM [KCl]0): 169 ± 10.5 | APD90 ± SE, Epicardium ([1]; 100 μM, 4 mM [KCl]0): 220.5 ± 18.26 | APD90 ± SE, M region ([1]; 100 μM, 4 mM [KCl]0): 247.8 ± 15.32 | QTend ([1]; 100 μM, 4 mM [KCl]0): 284.5 ± 14.39 | TDR ([1]; 100 μM, 4 mM [KCl]0): 23.75 ± 2.689 | Tpeak-Tend ([1]; 100 μM, 4 mM [KCl]0): 40.5 ± 4.94 | Arrhythmias in the wedge preparation ([1]; any concentration of ranolazine): No arrhythmias were observed | Ranolazine-induced Torsade de Pointes, Spontaneous ([1]; 2 mM [K+]0): 0/3 | Ranolazine-induced Torsade de Pointes, Stimulation-induced ([1]; 2 mM [K+]0): 0/3 | Ranolazine-induced Torsade de Pointes, Spontaneous ([1]; 4 mM [K+]0): 0/4 | Ranolazine-induced Torsade de Pointes, Stimulation-induced ([1]; 4 mM [K+]0): 0/4 | Early or delayed afterdepolarizations ([1]; tissue or wedge preparations, any concentration of ranolazine): Neither early nor delayed afterdepolarizations were observed | IC50 [2]: 91 µM | Effect on ATXII-induced EADs and MAP prolongation ([3]; ATXII 20 nM): reversed | Effect on ATXII-induced EADs and MAP prolongation ([3]; ATXII 20 nM, listed as Ranolazine): reduced or effectively abolished | Decrease of MAPS90 ([3]; ATX-II plus 293B): 8.3±0.1% | Decrease of MAPS90 ([3]; ATX-II plus E-4031): 24.5±0.1% | Effect on ATXII-induced VT ([3]; ranolazine 30 μM, ATXII 20 nM): reduced or effectively abolished | Effect on ATXII-induced EADs and VT [3]: VTs were terminated | Effect on ATXII-induced EADs and VT ([3]; listed as Ranolazine): significantly suppressed EADs and VT
